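Cultured in 96-well plates, cells were exposed to test compound for 48 hours across five concentrations. TGI denotes the concentration required for complete inhibition of growth.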
How the values were obtained:
Assay in all cases: inhibition of tumour cell growth, NCI panel, 48 h
786-0 renal = test system: 786-0 renal
A498 renal = test system: A498 renal
A549 NSCLC = test system: A549 NSCLC
ACHN renal = test system: ACHN renal
BT-549 breast = test system: BT-549 breast
CAKI-1 renal = test system: CAKI-1 renal
CCRF-CEM leukemia = test system: CCRF-CEM leukemia
COLO 205 colon = test system: COLO 205 colon
DU-145 prostate = test system: DU-145 prostate
EKVX NSCLC = test system: EKVX NSCLC
HCC-2998 colon = test system: HCC-2998 colon
HCT-116 colon = test system: HCT-116 colon
HCT-15 colon = test system: HCT-15 colon
HL-60(TB) leukemia = test system: HL-60(TB) leukemia
HOP-62 NSCLC = test system: HOP-62 NSCLC
HOP-92 NSCLC = test system: HOP-92 NSCLC
HS 578T breast = test system: HS 578T breast
HT29 colon = test system: HT29 colon
IGROV1 ovarian = test system: IGROV1 ovarian
K-562 leukemia = test system: K-562 leukemia
KM12 colon = test system: KM12 colon
LOX IMVI melanoma = test system: LOX IMVI melanoma
M14 melanoma = test system: M14 melanoma
MCF7 breast = test system: MCF7 breast
MDA-MB-231 breast = test system: MDA-MB-231 breast
MDA-MB-435 = test system: MDA-MB-435
MDA-N = test system: MDA-N
MOLT-4 leukemia = test system: MOLT-4 leukemia
NCI-H226 lung = test system: NCI-H226 lung
NCI-H23 lung = test system: NCI-H23 lung
NCI-H460 lung = test system: NCI-H460 lung
NCI-H522 lung = test system: NCI-H522 lung
NCI/ADR-RES ovarian = test system: NCI/ADR-RES ovarian
OVCAR-3 ovarian = test system: OVCAR-3 ovarian
OVCAR-4 ovarian = test system: OVCAR-4 ovarian
OVCAR-5 ovarian = test system: OVCAR-5 ovarian
OVCAR-8 ovarian = test system: OVCAR-8 ovarian
PC-3 prostate = test system: PC-3 prostate
RPMI-8226 leukemia = test system: RPMI-8226 leukemia
RXF 393 renal = test system: RXF 393 renal
SF-268 CNS = test system: SF-268 CNS
SF-295 CNS = test system: SF-295 CNS
SF-539 CNS = test system: SF-539 CNS
SK-MEL-2 melanoma = test system: SK-MEL-2 melanoma
SK-MEL-28 melanoma = test system: SK-MEL-28 melanoma
SK-MEL-5 melanoma = test system: SK-MEL-5 melanoma
SK-OV-3 ovarian = test system: SK-OV-3 ovarian
SN12C renal = test system: SN12C renal
SNB-19 CNS = test system: SNB-19 CNS
SNB-75 CNS = test system: SNB-75 CNS
SR leukemia = test system: SR leukemia
SW-620 colon = test system: SW-620 colon
T-47D breast = test system: T-47D breast
TK-10 renal = test system: TK-10 renal
U251 CNS = test system: U251 CNS
UACC-257 melanoma = test system: UACC-257 melanoma
UACC-62 melanoma = test system: UACC-62 melanoma
UO-31 renal = test system: UO-31 renal

Measured: TGI

CCOC(=O)c1c(Sc2ccc([N+](=O)[O-])cc2[N+](=O)[O-])nc2c3ccccc3ccn12
41.3 µM: HOP-92 NSCLC
> 59.4 µM: HOP-62 NSCLC
> 92.3 µM: HS 578T breast
> 92.9 µM: RXF 393 renal
69.7 µM: SK-OV-3 ovarian
> 94.8 µM: SF-539 CNS
> 38.6 µM: 786-0 renal
> 31.6 µM: IGROV1 ovarian
> 65.9 µM: UACC-62 melanoma
> 100 µM: all other assays above
